Data published in patent US10111854B2, “Synthesis and use of amine-containing flavonoids as potent anti-leishmanial agents” (The Hong Kong Polytechnic University, priority 2014, dated 2018).

Tests used:
[1] = Cytotoxicity, L929 fibroblasts; assay type: cell-based, mouse; conditions: mouse
Description: IC50 values of known antileishmanials and the amine-containing flavonoid monomers of the present invention to promastigotes (L. amazonensis LV78, L major FV1, L. donovani HU3, L. donovani 39), macrophages (Raw 264.7 and PEM) and mouse fibroblast (L929) were determined. The anti-promastigotes activities and cytotoxicity of the amine-containing flavonoid monomers of the invention are shown in Table 1.

[2] = system: L. donovani HU3 amastigotes; assay: Anti-amastigote activity in infected PEM, L. donovani HU3; assay type: cell-based; conditions: for Selective index (a)/(b): IC50 RAW264.7 over IC50 L. donovani HU3 amastigotes; for IC50: Leishmania donovani, 72 h, infected PEM, 3 days, Giemsa, SSG-sensitive
Summary of the method: (§1)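 IC50 values derive from the number of amastigotes per 100 macrophages, counted on Giemsa-stained cover slips. Infected mouse PEM had been treated for 72 h at 37 °C.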

RAW264.7 cells = assay: Reactive oxygen species (ROS) level, DCFDA, RAW264.7; assay type: cell-based, murine; conditions: for ROS induction in macrophages: RAW264.7
Summary of the method: (§2)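 RAW264.7 macrophages or L. amazonensis promastigotes pre-loaded 1 h with 10 μM DCFDA (37 °C and 27 °C respectively), washed, then exposed to compounds (10 or 30 μM in macrophages; 30 μM in promastigotes). DCF fluorescence (ex 485 nm) read at 2–72 h, background from unstained cells subtracted.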

[3] = Cytotoxicity, peritoneal elicited macrophages (PEM); assay type: cell-based, mouse; conditions: mouse, Cytotoxicity IC50, PEM
[4] = system: L. amazonensis LV78 amastigotes; assay: Anti-amastigote activity in infected PEM, L. amazonensis LV78; assay type: cell-based; conditions: for Selective index (a)/(b): IC50 RAW264.7 over IC50 L. amazonensis LV78 amastigotes; for IC50: Leishmania amazonensis, 72 h, infected PEM, 3 days, Giemsa
Summary of the method: as §1

[5] = system: L. amazonensis LV78 promastigotes; assay: Reactive oxygen species (ROS) level, DCFDA, promastigotes; assay type: cell-based; conditions: 30 μM
Summary of the method: as §2

[6] = system: L. donovani Ld39 amastigotes (SSG-resistant); assay: Anti-amastigote activity in infected PEM, L. donovani Ld39; assay type: cell-based; conditions: for Selective index (a)/(c): IC50 RAW264.7 over IC50 L. donovani Ld39 amastigotes; for IC50: Leishmania donovani, 72 h, infected PEM, 3 days, Giemsa, SSG-resistant
Summary of the method: as §1

[7] = system: L. donovani Ld39 promastigotes; assay: Anti-promastigote activity (MTS assay), L. donovani Ld39; assay type: cell-based; conditions: Leishmania donovani, 72 hours
Summary of the method: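 Promastigotes (1×10^5 per well) in Schneider's medium pH 6.9 with 10% FBS, exposed to serial compound concentrations for 72 h at 27 °C. Viability by MTS/PMS reduction over 4 h, OD 490 nm; IC50 derived.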

Row | IC50 [2] [nM] | IC50 [4] [nM] | Structure (SMILES) | IC50 [1] [nM] | Selective index (a)/(b) [2] | RAW264.7 ROS Level, Relative fold (RF) (RAW264.7 cells; 10 μM, 2 hr) [fold] | RAW264.7 ROS Level, Relative fold (RF) (RAW264.7 cells; 10 μM, 4 hr) [fold] | RAW264.7 ROS Level, Relative fold (RF) (RAW264.7 cells; 10 μM, 6 hr) [fold] | RAW264.7 ROS Level, Relative fold (RF) (RAW264.7 cells; 10 μM, 8 hr) [fold] | RAW264.7 ROS Level, Relative fold (RF) (RAW264.7 cells; 10 μM, 20 hr) [fold] | ROS induction in macrophages (RAW264.7 cells; 10 μM) | RAW264.7 ROS Level, Relative fold (RF) (RAW264.7 cells; 30 μM, 2 hr) [fold] | RAW264.7 ROS Level, Relative fold (RF) (RAW264.7 cells; 30 μM, 4 hr) [fold] | RAW264.7 ROS Level, Relative fold (RF) (RAW264.7 cells; 30 μM, 6 hr) [fold] | RAW264.7 ROS Level, Relative fold (RF) (RAW264.7 cells; 30 μM, 20 hr) [fold] | RAW264.7 ROS Level, Relative fold (RF) (RAW264.7 cells; 30 μM, 46 hr) [fold] | IC50 [3] [nM] | Selective index (a)/(b) [4] | L. amazon LV78 promastigote ROS Level, Relative fold (RF) ([5]; 2 hr) [fold] | L. amazon LV78 promastigote ROS Level, Relative fold (RF) ([5]; 4 hr) [fold] | L. amazon LV78 promastigote ROS Level, Relative fold (RF) ([5]; 6 hr) [fold] | further results
1 | 200 ± 60 | 430 | O=c1cc(-c2ccc(OCCOCCN(CCOCCOc3ccc(-c4cc(=O)c5ccccc5o4)cc3)Cc3ccncc3)cc2)oc2ccccc12 [compound 39] | 26400 | >500 | 0.9 | 0.9 | 0.9 | 0.8 | 0.9 | No ROS induction | 1.3 | 1.4 | 1.3 | 1.3 | 1.4 | > 100000 | 232.6 | 1.3 | 1.3 | 1.3 | L. amazon LV78 promastigote ROS Level, Relative fold (RF) ([5]; 20 hr): 1.6 fold; L. amazon LV78 promastigote ROS Level, Relative fold (RF) ([5]; 46 hr): 1.4 fold; L. amazon LV78 promastigote ROS Level, Relative fold (RF) ([5]; 72 hr): 1.6 fold; Selective index (a)/(c) [6]: 47.6; IC50 [6]: 210 ± 60 nM; IC50 [7]: 210 ± 60 nM
2 | 400 | 300 | O=c1cc(-c2ccc(OCCOCCN(Cc3ccccn3)Cc3ccccn3)cc2)oc2ccccc12 [FM09, 2-(4-(2-(2-(bis(pyridin-2-ylmethyl)amino)ethoxy)ethoxy)phenyl)-4H-chromen-4-one] | > 33000 | 47.3 | 1.1 | 1.1 | 1.0 | 1.0 | 1.1 | No ROS induction | 1.3 | 1.4 | 1.3 | 1.4 | 2.1 | 22000 | 63 | 2.0 | 2.1 | 2.3 | L. amazon LV78 promastigote ROS Level, Relative fold (RF) ([5]; 20 hr): 3.2 fold; L. amazon LV78 promastigote ROS Level, Relative fold (RF) ([5]; 46 hr): 4.3 fold; L. amazon LV78 promastigote ROS Level, Relative fold (RF) ([5]; 72 hr): 6.2 fold; Selective index (a)/(c) [6]: >51.1; IC50 [6]: < 370 nM; IC50 [7]: 500 ± 100 nM
